Source: patent US7015249B1, “Methods and compositions for treating diabetes” (Purdue Research Foundation, priority 1997, dated 2006)

How the values were obtained:
Type in all cases: cell-based
[1] = molecular target: T1, ligand binding domain of mouse PPARα (Mus musculus, UniProt P23204); assay: GAL4-PPARα chimera / (UAS)5-tk-CAT reporter transfection assay in COS-1 cells; conditions: 100 μM in DMSO
T1 construct: expressed in transfected cells; host or cells: COS-1
T1 sequence (P23204 239-466 limits assumed): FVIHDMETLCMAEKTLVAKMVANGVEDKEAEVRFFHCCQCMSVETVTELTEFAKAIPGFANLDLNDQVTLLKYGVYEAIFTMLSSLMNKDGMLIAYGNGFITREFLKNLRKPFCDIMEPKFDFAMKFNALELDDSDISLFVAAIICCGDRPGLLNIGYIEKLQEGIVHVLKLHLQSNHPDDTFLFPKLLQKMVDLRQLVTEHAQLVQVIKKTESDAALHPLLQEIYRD
Experimental: COS-1 cells (American Type Culture Collection) were maintained in α-minimal essential media (Sigma) supplemented with 8% fetal calf serum (Gibco BRL), 0.2 mg/ml streptomycin and 200 U/ml penicillin. The pSG5-GAL4-PPAR chimera expression constructs, containing the ligand binding domain of mouse PPARα, β or γ, as well as the (UAS)5-tk-CAT reporter construct were kindly provided by Steven A. Kliewer (Glaxo Research Institute). At 75–90% confluence, COS-1 cells were co-transfected with GAL4-PPAR, (UAS)5-tk-CAT, and pSV-βGal (Promega) as described in Lehmann, J. M. et al., J. Biol. Chem. 270, 12953–12956 (1995). Twenty-four hours after transfection, the cells were treated with the indicated amounts of CLA, or a single 100 μM dose of 4-chloro-6-(2,3-xylindino)-2-pyrimidinylthio)-acetic acid (Wy 14,643; a hypolipidemic drug known as a peroxisome proliferator). After 6 hours of treatment, the cells were harvested and chloramphenicol acetyltransferase levels were assessed by ELISA (Gibco BRL) according to the manufacturer's instructions. Data is expressed relative to β-galactosidase activity. CLA used in this experiment was obtained from a commercially available mixture from NuChek Prep, Elysian Minn. […]

[2] = molecular target: T2, ligand binding domain of mouse PPARβ (Mus musculus, UniProt P35396); assay: GAL4-PPARβ chimera / (UAS)5-tk-CAT reporter transfection assay in COS-1 cells; conditions: 100 μM in DMSO
T2 construct: expressed in transfected cells; host or cells: COS-1
T2 sequence (P35396 210-438 limits assumed): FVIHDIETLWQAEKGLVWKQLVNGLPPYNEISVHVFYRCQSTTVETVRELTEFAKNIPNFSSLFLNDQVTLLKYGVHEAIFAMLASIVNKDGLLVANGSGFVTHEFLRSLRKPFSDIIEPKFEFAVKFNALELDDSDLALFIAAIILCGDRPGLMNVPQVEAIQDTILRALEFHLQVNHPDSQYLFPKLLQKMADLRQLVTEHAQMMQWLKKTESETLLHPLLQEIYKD
Experimental: COS-1 cells (American Type Culture Collection) were maintained in α-minimal essential media (Sigma) supplemented with 8% fetal calf serum (Gibco BRL), 0.2 mg/ml streptomycin and 200 U/ml penicillin. The pSG5-GAL4-PPAR chimera expression constructs, containing the ligand binding domain of mouse PPARα, β or γ, as well as the (UAS)5-tk-CAT reporter construct were kindly provided by Steven A. Kliewer (Glaxo Research Institute). At 75–90% confluence, COS-1 cells were co-transfected with GAL4-PPAR, (UAS)5-tk-CAT, and pSV-βGal (Promega) as described in Lehmann, J. M. et al., J. Biol. Chem. 270, 12953–12956 (1995). Twenty-four hours after transfection, the cells were treated with the indicated amounts of CLA, or a single 100 μM dose of 4-chloro-6-(2,3-xylindino)-2-pyrimidinylthio)-acetic acid (Wy 14,643; a hypolipidemic drug known as a peroxisome proliferator). After 6 hours of treatment, the cells were harvested and chloramphenicol acetyltransferase levels were assessed by ELISA (Gibco BRL) according to the manufacturer's instructions. Data is expressed relative to β-galactosidase activity. CLA used in this experiment was obtained from a commercially available mixture from NuChek Prep, Elysian Minn. The mixture contained about 41.2% by weight of a composition including cis,trans-9,11-octadecadienoic acid and trans,cis-9,11-octadecadienoic acid, about 44% by weight trans,cis-10,12-octadecadienoic acid, about 9.4% by weight cis,cis-10,12-octadecadienoic acid, about 1.3% by weight of a composition including trans,trans-9,11-octadecadienoic acid and trans,trans-10,12-octadecadienoic acid, about 1.1% by weight cis,cis-9,11-octadecadienoic acid, about 0.7% by weight linoleic acid and about 2.2% of other lipids as mentioned above.
In this example, certain PPAR subtypes are shown to be activated by CLA isomers. However, a 100 μM concentration of selected isomers of CLA were also utilized in the transfection assay to determine whether specific isomers of CLA could activate any of the PPAR subtypes.

full length mouse PPARα = molecular target: T3, full length mouse PPARα (Mus musculus, UniProt P23204); assay: Full length PPARα PPRE-luciferase reporter assay in CV-1 cells; conditions: 100 μM, six hours
T3 construct: constructs including full length mouse PPARα, PPARβ or PPARγ and a luciferase reporter gene; expressed in transfected cells; host or cells: CV-1 (African green monkey kidney cells)
T3 sequence (P23204 1-468): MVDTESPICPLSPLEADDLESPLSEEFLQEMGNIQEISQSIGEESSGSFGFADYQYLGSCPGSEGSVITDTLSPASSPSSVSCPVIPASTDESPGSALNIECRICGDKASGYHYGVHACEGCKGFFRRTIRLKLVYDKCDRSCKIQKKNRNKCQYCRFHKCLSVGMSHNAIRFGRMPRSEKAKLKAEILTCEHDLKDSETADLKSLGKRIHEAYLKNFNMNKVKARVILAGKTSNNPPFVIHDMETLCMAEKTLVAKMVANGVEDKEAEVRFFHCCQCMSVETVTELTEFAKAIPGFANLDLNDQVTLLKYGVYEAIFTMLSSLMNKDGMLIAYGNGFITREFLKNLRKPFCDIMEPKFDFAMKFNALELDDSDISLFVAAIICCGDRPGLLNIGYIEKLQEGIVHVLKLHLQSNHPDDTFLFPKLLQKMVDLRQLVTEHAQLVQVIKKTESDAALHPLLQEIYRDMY
Experimental: (§1) The data in FIGS. 5–7 was generated utilizing constructs including full length mouse PPARα, PPARβ or PPARγ and a luciferase reporter gene. The CV-1 cell line (African green monkey kidney cells) used was obtained from American Type Culture Collection (#CCL-70). The cells were grown in Eagle minimal essential medium containing 10% fetal bovine serum (GIBCO). For each transfection involving PPARα, 625 ng pcDNA3-PPARα expression vector was used along with 250 ng of psV-GL-2-PPRE-luciferase reporter plasmid and 250 ng of pSV-β-galactosidase internal control plasmid. For each transfection involving PPARβ or PPARγ, either 625 ng pSG5-mouse-PPARβ or 625 ng pSG5-mouse-PPARγ was used along with 250 ng of the psV-GL2-PPRE-luciferase reporter plasmid and 250 ng of pSV-β-galactosidase internal control plasmid. Cells were transfected using Lipofect AMINE™ reagent (GIBCO) and phenol red-free, serum free medium (OptiMEM®I, GIBCO Life Technologies, Grand Island, N.Y.). Seven hours post-transfection, charcoal stripped serum (Cocalico Biologicals, Inc. Reamstown, Pa.) was added to the media (10% final concentration) for an overnight incubation (16 hours). […] The data were quantified relative to luciferase/β-galactosidase activity expressed as a ratio to vehicle-treated cells (0.1% DMSO).

full length mouse PPARβ = molecular target: T4, full length mouse PPARβ (Mus musculus, UniProt P35396); assay: Full length PPARβ PPRE-luciferase reporter assay in CV-1 cells; conditions: 100 μM
T4 construct: constructs including full length mouse PPARα, PPARβ or PPARγ and a luciferase reporter gene; expressed in transfected cells; host or cells: CV-1 (African green monkey kidney cells)
T4 sequence (P35396 1-440): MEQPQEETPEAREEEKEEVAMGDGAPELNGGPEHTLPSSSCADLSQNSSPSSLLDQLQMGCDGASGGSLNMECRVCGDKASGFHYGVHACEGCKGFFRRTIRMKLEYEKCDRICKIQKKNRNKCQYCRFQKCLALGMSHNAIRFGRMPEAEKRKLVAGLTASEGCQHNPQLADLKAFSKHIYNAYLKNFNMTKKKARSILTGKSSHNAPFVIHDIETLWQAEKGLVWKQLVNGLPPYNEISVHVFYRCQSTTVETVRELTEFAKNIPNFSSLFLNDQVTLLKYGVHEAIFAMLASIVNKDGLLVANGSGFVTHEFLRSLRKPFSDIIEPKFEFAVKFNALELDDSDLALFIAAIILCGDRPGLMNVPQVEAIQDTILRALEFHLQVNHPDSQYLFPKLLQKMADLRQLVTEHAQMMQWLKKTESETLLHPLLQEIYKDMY
Experimental: as §1

full length mouse PPARγ = molecular target: T5, full length mouse PPARγ (Mus musculus, UniProt P37238); assay: Full length PPARγ PPRE-luciferase reporter assay in CV-1 cells; conditions: 100 μM, six hours
T5 construct: constructs including full length mouse PPARα, PPARβ or PPARγ and a luciferase reporter gene; expressed in transfected cells; host or cells: CV-1 (African green monkey kidney cells)
T5 sequence (P37238 1-505): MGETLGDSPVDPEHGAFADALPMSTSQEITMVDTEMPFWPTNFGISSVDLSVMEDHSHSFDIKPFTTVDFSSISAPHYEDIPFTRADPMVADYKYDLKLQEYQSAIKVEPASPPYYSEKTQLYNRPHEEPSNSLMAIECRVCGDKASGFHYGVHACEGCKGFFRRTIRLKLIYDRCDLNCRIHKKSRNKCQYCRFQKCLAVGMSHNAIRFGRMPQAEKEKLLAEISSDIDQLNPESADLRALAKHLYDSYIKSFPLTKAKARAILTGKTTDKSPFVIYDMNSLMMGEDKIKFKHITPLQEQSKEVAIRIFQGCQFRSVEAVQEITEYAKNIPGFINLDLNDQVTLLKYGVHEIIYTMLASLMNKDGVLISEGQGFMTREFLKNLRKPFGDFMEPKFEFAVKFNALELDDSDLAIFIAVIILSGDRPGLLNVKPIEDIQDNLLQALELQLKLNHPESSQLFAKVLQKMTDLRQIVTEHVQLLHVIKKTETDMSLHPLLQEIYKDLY
Experimental: as §1

[3] = listed as trans,cis-10,12-octadecadienoic acid

Compound	activation of PPARα, compared with CLA mixture (FIG. 4) [1]	activation of PPARβ, compared with CLA mixture (FIG. 4) [2]	activation of full length PPARα vs DMSO control / CLA mixture (FIG. 5) (full length mouse PPARα)	activation of full length PPARα vs DMSO control / CLA mixture (FIG. 5) (full length mouse PPARα; [3])	activation of full length PPARβ vs DMSO control / CLA mixture (FIG. 6) (full length mouse PPARβ)	activation of full length PPARβ vs DMSO control / CLA mixture (FIG. 6) (full length mouse PPARβ; [3])	activation of full length PPARγ vs DMSO control (FIG. 7) (full length mouse PPARγ)
CCCCCC/C=C\C=C/CCCCCCCC(=O)O [9Z11Z, cis,cis-9,11-octadecadienoic acid]	more than the CLA mixture	more than the CLA mixture	–	–	–	–	–
CCCCCC/C=C/C=C/CCCCCCCC(=O)O [9E11E, trans,trans-9,11-octadecadienoic acid]	–	more than CLA mixture alone	–	–	–	–	–
CCCCCC/C=C/C=C\CCCCCCCC(=O)O [9Z11E, cis,trans-9,11-octadecadienoic acid]	more than the CLA mixture	more than the CLA mixture	–	–	–	–	–
CCCCC/C=C\C=C\CCCCCCCCC(=O)O [trans,cis-10,12 CLA isomer, trans,cis-10,12-octadecadienoic acid]	–	–	significantly more than the CLA mixture alone	activate	significantly more than the CLA mixture alone	activate	activate
